In patent US11214594B2, “Antimicrobial peptide having synergistic antibacterial effect with antibiotics on multidrug resistant bacteria, and use thereof” (priority 2016, dated 2022):
Read-outs that look alike come from different tables or passages of the source. Where a SMILES comes first, the peptide text is derived from it.

Columns and labels:
[1] = test system: MDREC 1238; assay type: cell-based, Escherichia coli
How it was run: (§1)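 Each strain is brought to 2×10^6 CFU in nutrient-sufficient Mueller-Hinton medium and dispensed into wells. Peptide solutions, stepwise diluted 2:1 in the same medium, are then added. The minimal concentration preventing growth gives the MIC.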

[2] = test system: P. aeruginosa; assay: microbe, parasite or virus in culture; assay type: cell-based, Pseudomonas aeruginosa
How it was run: as §1

[3] = test system: MDRPA 2003; assay type: cell-based, Pseudomonas aeruginosa
How it was run: as §1

[4] = test system: MDRAB 12036; assay type: cell-based, Acinetobacter baumannii
How it was run: as §1

[5] = test system: MDRST 8009; assay type: cell-based, Salmonella typhimurium; settings: agent alone
How it was run: as §1

[6] = test system: S. epidermidis; assay: microbe, parasite or virus in culture; assay type: cell-based, Staphylococcus epidermidis
How it was run: as §1

[7] = test system: MDREC 1229; assay: MIC of antibiotic during combined treatment with antimicrobial peptide; assay type: cell-based, Escherichia coli
How it was run: (§2)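 Strains in MH medium at 2×10^6 CFU/ml were mixed with peptide diluted stepwise (2:1) from its MIC, then antibiotic dilutions in MH medium were added to give the antibiotic MIC. The reversed set-up, peptide titrated against fixed antibiotic, gave the peptide MIC.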

[8] = test system: A. baumannii; assay: as above; assay type: cell-based, Acinetobacter baumannii; settings: for Antibiotic MIC, Erythromycin / Antibiotic MIC, Linezolid / Antibiotic MIC, Vancomycin: A. baumannii
How it was run: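 Read-out is the MIC of each combined solution, obtained from MH-medium dilutions of antibiotic added well by well, with a reversed-condition run as well.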

[9] = test system: MDRAB 12035; assay: as above; assay type: cell-based, Acinetobacter baumannii
How it was run: as §2

[10] = test system: E. coli; assay type: cell-based, Escherichia coli; settings: E. coli
How it was run: as §2

[11] = test system: MDREC 1229; assay type: cell-based, Escherichia coli
How it was run: as §2

[12] = test system: A. baumannii; assay: MIC of antimicrobial peptide during combined treatment with antibiotic; assay type: cell-based, Acinetobacter baumannii
How it was run: as §2

[13] = test system: MDRAB 12035; assay: as above; assay type: cell-based, Acinetobacter baumannii
How it was run: as §2

[14] = peptide treatment concentration 1 μg/ml
[15] = peptide treatment concentration 2 μg/ml
[16] = peptide treatment concentration 4 μg/ml
[17] = peptide treatment concentration 6 μg/ml
[18] = peptide treatment concentration 8 μg/ml
[19] = peptide treatment concentration 16 μg/ml
[20] = peptide treatment concentration 32 μg/ml
[21] = peptide treatment concentration 64 μg/ml
[22] = combined with peptide at 1 μg/ml
[23] = combined with peptide at 2 μg/ml
[24] = combined with peptide at 4 μg/ml
[25] = combined with peptide at 6 μg/ml
[26] = combined with peptide at 8 μg/ml
[27] = combined with peptide at 16 μg/ml
[28] = combined with peptide at 32 μg/ml
[29] = combined with peptide at 64 μg/ml
[30] = with Erythromycin […] (Conc./MIC 1)
[31] = erythromycin 4 μg/ml (Conc./MIC 1/8)
[32] = erythromycin 8 μg/ml (Conc./MIC 1/4)
[33] = erythromycin 16 μg/ml (Conc./MIC 1/2)
[34] = erythromycin 32 μg/ml (Conc./MIC 1)
[35] = vancomycin 512 μg/ml (Conc./MIC 1/2)
[36] = vancomycin 1024 μg/ml (Conc./MIC 1)

CC[C@H](C)[C@H](NC(=O)[C@H](CCCCN)NC(=O)[C@H](Cc1c[nH]c2ccccc12)NC(=O)[C@@H](N)CCCNC(=N)N)C(=O)N[C@@H](Cc1ccccc1)C(=O)N[C@@H](CCCCN)C(=O)N[C@@H](CCCCN)C(=O)N[C@H](C(=O)N1CCC[C@H]1C(=O)N[C@@H](CCCCN)C(=O)N[C@@H](Cc1ccccc1)C(=O)N[C@@H](CC(C)C)C(=O)N[C@@H](Cc1c[nH]cn1)C(=O)N[C@@H](CO)C(=O)N[C@@H](CC(C)C)C(=O)N[C@@H](CCCCN)C(=O)N[C@@H](CCCCN)C(=O)N[C@@H](Cc1ccccc1)C(N)=O)[C@@H](C)CC [PapMA-6, RWK IFK KIP KFL HSL KKF-NH2] (H-RWKIFKKIPKFLHSLKKF-NH2; N-terminus assumed)
32 µg/mL: Minimal inhibitory concentration MIC [3] | Antibiotic MIC, Erythromycin [7, 15] | Antibiotic MIC, Linezolid [7, 16] | Linezolid MIC during combined treatment with peptide [9, 15]
2 µg/mL: Antibiotic MIC, Erythromycin [7, 17] | Antibiotic MIC, Vancomycin [7, 20] | Antibiotic MIC, Erythromycin [8, 25] | Antibiotic MIC, Linezolid [8, 26] | Antibiotic MIC, Vancomycin [8, 27] | Linezolid MIC during combined treatment with peptide [9, 19] | Vancomycin MIC during combined treatment with peptide [9, 20] | Peptide MIC during treatment with antibiotic [12, 32] | Peptide MIC during treatment with antibiotic ([12]; linezolid 64 μg/ml (Conc./MIC 1/4)) | Peptide MIC during treatment with antibiotic ([12]; vancomycin […] (Conc./MIC 1/8)) | Peptide MIC during treatment with erythromycin [13, 32] | Peptide MIC during treatment with linezolid ([13]; linezolid 64 μg/ml (Conc./MIC 1/8)) | Peptide MIC during treatment with vancomycin ([13]; vancomycin […] (Conc./MIC 1/4)) | Peptide MIC during treatment with vancomycin ([13]; vancomycin […] (Conc./MIC 1/8))
128 µg/mL: Antibiotic MIC, Linezolid [7, 14] | Antibiotic MIC, Linezolid [8, 22] | Antibiotic MIC, Vancomycin [8, 23] | Linezolid MIC during combined treatment with peptide [9, 14] | Vancomycin MIC during combined treatment with peptide [9, 15]
4 µg/mL: Antibiotic MIC, Linezolid [7, 19] | Antibiotic MIC, Vancomycin [7, 19] | Antibiotic MIC, Erythromycin [8, 24] | Antibiotic MIC, Linezolid [8, 25] | Antibiotic MIC, Vancomycin [8, 26] | Erythromycin MIC during combined treatment with peptide [9, 16] | Linezolid MIC during combined treatment with peptide [9, 18] | Vancomycin MIC during combined treatment with peptide [9, 19] | Peptide MIC during treatment with antibiotic [12, 31] | Peptide MIC during treatment with antibiotic ([12]; linezolid 32 μg/ml (Conc./MIC 1/8)) | Peptide MIC during treatment with erythromycin [13, 31]
0.125 µg/mL: Antibiotic MIC, Erythromycin [7, 20] | Antibiotic MIC, Erythromycin [8, 26] | Erythromycin MIC during combined treatment with peptide [9, 19]
64 µg/mL: Minimal inhibitory concentration MIC [1] | Minimal inhibitory concentration MIC [4] | Minimal inhibitory concentration MIC [5] | Antibiotic MIC, Erythromycin [7, 14] | Antibiotic MIC, Linezolid [7, 15] | Antibiotic MIC, Vancomycin [7, 17] | Antibiotic MIC, Linezolid [8, 23] | Vancomycin MIC during combined treatment with peptide [9, 16]
0.0625 µg/mL: Antibiotic MIC, Erythromycin [8, 27] | Erythromycin MIC during combined treatment with peptide [9, 20]
1 µg/mL: Antibiotic MIC, Erythromycin [7, 18] | Antibiotic MIC, Linezolid [7, 20] | Linezolid MIC during combined treatment with peptide [9, 20] | Peptide MIC during treatment with antibiotic [12, 33] | Peptide MIC during treatment with antibiotic ([12]; linezolid […] (Conc./MIC 1/2)) | Peptide MIC during treatment with erythromycin [13, 33] | Peptide MIC during treatment with linezolid ([13]; linezolid […] (Conc./MIC 1/2)) | Peptide MIC during treatment with linezolid ([13]; linezolid […] (Conc./MIC 1/4)) | Peptide MIC during treatment with vancomycin [13, 35]
0.25 µg/mL: Antibiotic MIC, Erythromycin [7, 19] | Erythromycin MIC during combined treatment with peptide [9, 18] | Peptide MIC during treatment with antibiotic [12, 35] | Peptide MIC during treatment with vancomycin [13, 36]
0.5 µg/mL: Antibiotic MIC, Linezolid [8, 27] | Erythromycin MIC during combined treatment with peptide [9, 17] | Peptide MIC during treatment with antibiotic ([12]; vancomycin […] (Conc./MIC 1/4))
significantly increased: Antibacterial activity (in words) ([2]; P. aeruginosa and S. typhimurium)
16 µg/mL: Minimal inhibitory concentration MIC [2] | Antibiotic MIC, Vancomycin [7, 18] | Antibiotic MIC, Erythromycin [8, 22] | Antibiotic MIC, Vancomycin [8, 24] | Erythromycin MIC during combined treatment with peptide [9, 14] | Linezolid MIC during combined treatment with peptide [9, 16]
0 µg/mL: Antibiotic MIC, Erythromycin [7, 21] | Antibiotic MIC, Linezolid [7, 21] | Antibiotic MIC, Vancomycin [7, 21] | Antibiotic MIC, Erythromycin [8, 28] | Antibiotic MIC, Linezolid [8, 28] | Antibiotic MIC, Vancomycin [8, 28] | Antibiotic MIC, Erythromycin [8, 29] | Antibiotic MIC, Linezolid [8, 29] | Antibiotic MIC, Vancomycin [8, 29] | Erythromycin MIC during combined treatment with peptide [9, 21] | Linezolid MIC during combined treatment with peptide [9, 21] | Vancomycin MIC during combined treatment with peptide [9, 21] | Peptide MIC [10, 30] | Peptide MIC ([10]; with Linezolid […] (Conc./MIC 1)) | Peptide MIC ([10]; with Vancomycin 1024 μg/ml (Conc./MIC 1)) | Peptide MIC [11, 30] | Peptide MIC ([11]; with Linezolid 512 μg/ml (Conc./MIC 1)) | Peptide MIC during treatment with antibiotic [12, 34] | Peptide MIC during treatment with antibiotic ([12]; linezolid […] (Conc./MIC 1)) | Peptide MIC during treatment with antibiotic [12, 36] | Peptide MIC during treatment with erythromycin [13, 34] | Peptide MIC during treatment with linezolid ([13]; linezolid 512 μg/ml (Conc./MIC 1))
higher level than the PapMA-1 peptide: Synergistic effect of antibacterial activity with existing antibiotics compared with PapMA-1 ([8]; A. baumannii and MDRAB 12035)
8 µg/mL: Antibiotic MIC, Erythromycin [7, 16] | Antibiotic MIC, Linezolid [7, 17] | Antibiotic MIC, Linezolid [7, 18] | Antibiotic MIC, Erythromycin [8, 23] | Antibiotic MIC, Linezolid [8, 24] | Antibiotic MIC, Vancomycin [8, 25] | Erythromycin MIC during combined treatment with peptide [9, 15] | Linezolid MIC during combined treatment with peptide [9, 17] | Vancomycin MIC during combined treatment with peptide [9, 17] | Vancomycin MIC during combined treatment with peptide [9, 18]
>128 µg/mL: Minimal inhibitory concentration MIC [6] | Antibiotic MIC, Vancomycin [7, 14] | Antibiotic MIC, Vancomycin [7, 15] | Antibiotic MIC, Vancomycin [7, 16] | Antibiotic MIC, Vancomycin [8, 22] | Vancomycin MIC during combined treatment with peptide [9, 14]
